For data set [1], the system named is U373MG cells expressing hiCE. Description: Growth inhibition assay with inhibitors and CPT-11. Conditions: U373MGhiCE cells. It counts as cell-based.
The target in the next data set is hAChE (Homo sapiens, UniProt P22303). Description: Inhibition of acetylcholinesterase. It counts as biochemical.
The next data set deals with hBChE (Homo sapiens, UniProt P06276). Put plainly: Inhibition of butyrylcholinesterase. Type of data set: biochemical.
Data set [2] has as its system mammalian CEs (hCE1, hiCE, rCE). Description: CE inhibition across mammalian CEs. As to conditions: hCE1, hiCE or rCE, o-NPA substrate. Type of data set: biochemical.
Data set [3] can be described thus: Spontaneous hydrolysis in buffered aqueous solution. Type of data set: physicochemical. Conditions: within 5 mins of addition to buffered aqueous (pH 7.4) solution.
The test system of another data set is CE. Description: Ability of compounds to act as CE substrates. Type of data set: biochemical. As to conditions: 200 μM compound, 50 mM Hepes pH 7.4, data not shown.

Chain of hAChE (P22303 32-614): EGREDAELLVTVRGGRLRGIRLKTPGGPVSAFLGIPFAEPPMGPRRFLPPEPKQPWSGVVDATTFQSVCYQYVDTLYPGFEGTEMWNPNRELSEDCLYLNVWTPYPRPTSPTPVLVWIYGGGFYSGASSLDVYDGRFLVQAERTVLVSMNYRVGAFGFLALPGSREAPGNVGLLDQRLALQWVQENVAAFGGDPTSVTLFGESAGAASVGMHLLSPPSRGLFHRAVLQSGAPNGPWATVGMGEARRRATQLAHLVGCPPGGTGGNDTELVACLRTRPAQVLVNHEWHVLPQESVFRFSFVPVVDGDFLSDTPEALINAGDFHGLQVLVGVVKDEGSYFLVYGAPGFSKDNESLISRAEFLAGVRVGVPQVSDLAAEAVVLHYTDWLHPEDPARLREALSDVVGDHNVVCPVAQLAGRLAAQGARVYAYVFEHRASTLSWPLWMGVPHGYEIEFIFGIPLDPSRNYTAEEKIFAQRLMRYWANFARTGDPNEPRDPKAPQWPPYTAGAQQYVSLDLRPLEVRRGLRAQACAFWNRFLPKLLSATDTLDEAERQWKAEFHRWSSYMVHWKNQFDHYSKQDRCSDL
Chain of hBChE (P06276 29-602): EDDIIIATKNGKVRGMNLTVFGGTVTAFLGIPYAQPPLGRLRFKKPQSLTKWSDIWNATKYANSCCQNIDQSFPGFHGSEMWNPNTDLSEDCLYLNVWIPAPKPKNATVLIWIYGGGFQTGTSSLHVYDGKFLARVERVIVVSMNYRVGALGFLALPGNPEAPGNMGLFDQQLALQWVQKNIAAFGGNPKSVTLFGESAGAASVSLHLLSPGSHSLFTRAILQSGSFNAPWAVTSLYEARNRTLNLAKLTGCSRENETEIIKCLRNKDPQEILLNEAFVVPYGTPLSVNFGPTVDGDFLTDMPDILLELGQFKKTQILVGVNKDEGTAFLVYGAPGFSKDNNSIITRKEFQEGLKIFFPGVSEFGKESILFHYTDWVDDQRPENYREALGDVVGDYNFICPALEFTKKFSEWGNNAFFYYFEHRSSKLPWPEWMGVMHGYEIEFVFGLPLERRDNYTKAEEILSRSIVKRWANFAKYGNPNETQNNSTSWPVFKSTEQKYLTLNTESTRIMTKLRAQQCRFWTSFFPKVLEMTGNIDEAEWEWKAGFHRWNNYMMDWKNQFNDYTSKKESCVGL

`O=C(C(=O)c1ccccc1)c1ccccc1` [Compound 1, Benzil, reference compound]: the “Reduction of toxicity of CPT-11” value in data set [1] (versus CPT-11 alone) was ~ 6 fold.
Take `O=C(Nc1ccccc1)C(=O)Nc1ccccc1` [Compound 2, Oxanilide]: the “Activity towards hAChE (in words)” value on hAChE was “lacked activity”. Moreover, the “Activity towards hBChE (in words)” value at hBChE is “lacked activity”. Moreover, in data set [2], the “CE inhibition (in words)” value was “not an inhibitor”.
Consider `O=C(Sc1ccccc1)C(=O)Sc1ccccc1` [Compound 3, S^1, S^2-Diphenyl ethane bis(thioate)], for which, in data set [3], the Compound hydrolyzed spontaneously result is on record as “greater than 40%”. The “CE inhibition (in words)” value in data set [2] is recorded as “ineffective at enzyme inhibition”. Moreover, the “Hydrolysis on addition of CE (in words)” value in the data set with CE is given as “not enhanced”.
The like results for `O=C(Oc1ccccc1)C(=O)Oc1ccccc1` [Compound 4, Diphenyl ethanedioate] were, in that order, “greater than 40%”, “ineffective at enzyme inhibition” and “not enhanced”.
As for `CCCCCCC(=O)C(=O)CCCCCC` [Compound 13, Tetradecane-7,8-dione], the “Modulation of CPT-11 cytotoxicity (in words)” value in data set [1] (10 μM inhibitor) is recorded as “ineffective”.

For the origin of these results see article PMC3139784 (Bioorganic & medicinal chemistry, 2011).
